A short description of the assay: DPPH radical scavenging antioxidant test. The format is biochemical. The following applies: 517 nm; for Inhibition (radical scavenging inhibition): 0.2 mL DPPH (0.75 mM), compound 3 μM in ethanol, 30 min incubation in the dark. The method, then: The antioxidant activity of 5,5′-naphthalene-1,5-diylbis(diazene-2,1-diyl)bis(2-hydroxybenzaldehyde) was investigated by 2,2-diphenyl-1-picrylhydrazyl (DPPH) in vitro tests that employ vitamin C as the positive control.
The antioxidant properties of the 5,5′-naphthalene-1,5-diylbis(diazene-2,1-diyl)bis(2-hydroxybenzaldehyde) were studied by adding 0.2 mL DPPH (0.75 mM)) to compound 5,5′-naphthalene-1,5-diylbis(diazene-2,1-diyl)bis(2-hydroxybenzaldehyde) (III) (3 μM) in ethanol. After 30 min of incubation in the dark, the absorbance was read against a blank at 517 nm. Ascorbic acid (vitamin C) was used as standard antioxidants (positive control). A blank sample was prepared by 0.2 ml of DPPH in 3 ml ethanol. A negative control sample was run using ethanol instead of the sample. The radical scavenging inhibition was calculated using the following equation: […]
The antioxidant activity for the synthesized compound is listed in Table 1, using Vitamin C as a reference.
In general terms: DPPH is a stable violet radical that fades when it is reduced.

2 compounds from patent publication US11952325B1, “5,5′-naphthalene-1,5-diylbis(diazene-2,1-diyl)bis(2-hydroxybenzaldehyde) as an antioxidant compound” (KING FAISAL UNIVERSITY, priority 2023, dated 2024) can be followed below.

Structures are written as SMILES.

On to `O=C1O[C@H]([C@@H](O)CO)C(O)=C1O` [vit c, Ascorbic acid, reference compound], for which the “Inhibition (radical scavenging inhibition)” value was 74%. For `O=Cc1cc(/N=N\c2cccc3c(/N=N/c4ccc(O)c(C=O)c4)cccc23)ccc1O` [Product III, 5,5′-naphthalene-1,5-diylbis(diazene-2,1-diyl)bis(2-hydroxybenzaldehyde)], the “Inhibition (radical scavenging inhibition)” value is on record as 54%. For the same compound, the “antioxidant potential compared to vitamin C (vanishing DPPH radical colors)” value (DPPH in vitro test, vitamin C as positive control) is on record as “high potential as an antioxidant”.
